The nature of series [1]: Half life in rat liver microsomes at 100 uM after 5 to 180 mins by HPLC-UV analysis. It is filed as ADME.
A short description of series [2]: Metabolic stability in rat liver microsomes after 5 to 180 mins by HPLC-UV analysis. It is filed as ADME. For orientation: Microsomes from liver hold many membrane-bound enzymes, among them those of drug oxidation.

The values that follow come from ChEMBL document CHEMBL3734674, “Design, Synthesis, and Evaluation of Orally Available Clioquinol-Moracin M Hybrids as Multitarget-Directed Ligands for Cognitive Improvement in a Rat Model of Neurodegeneration in Alzheimer's Disease” (J Med Chem, 2015).

Usually half-life stands for how long it takes for the measured level to halve. A lower half-life goes with fast loss.

For `Oc1c(I)cc(Cl)c2cccnc12` [CLIOQUINOL], in series [1], the half-life at 100 µM is 34.8 min. Moreover, the k el in series [2] is 0.000331 s⁻¹.

In the case of `COc1cc2c(cc1OC)C(=O)C(CC1CCN(Cc3ccccc3)CC1)C2` (stereo unspecified) [DONEPEZIL], the half-life at 100 µM in series [1] turned out to be 73.3 min. The compound further had a k el in series [2] of 0.000149 s⁻¹.

`C[C@]12CC[C@H]3[C@@H](CCC4=CC(=O)CC[C@@]43C)[C@@H]1CC[C@@H]2O` [TESTOSTERONE] displayed a half-life at 100 µM in series [1] of 2.1 min. In series [2], this compound gave a k el of 0.00525 s⁻¹.
